Several values for one entry are separate records, joined by “and”; a condition that tells them apart may be missing. Equal values may be shown once. Read-outs that look alike come from different tables or passages of the source.
What was measured:
[1] = target: T1, GST-tagged PNCK recombinant protein (Homo sapiens, UniProt Q6P2M8); assay: ADP-Glo Kinase Assay, biochemical PNCK inhibitor screen; conditions: for inhibition at 10 µM: read-out: Avg. Normalized % Inhibition, 10uM, ADP Kinase Glo
T1 construct: GST; purchased Novus NBP1-99886
Experimental: ADP-Glo Kinase Assay (V6930, Promega) was used to screen the first round of compounds against PNCK. […] Autocamtide-II (GenScript RP10271) was used as the peptide substrate. This peptide was dissolved in water and prepared immediately prior to the assay. Calcium/Calmodulin 10X (Abcam ab189137) solution was used to create a custom kinase buffer: 40mM Tris,pH 7.5; 20mM MgCl2; 0.1mg/ml BSA; 50μM DTT and Ca2+/Calmodulin solution (0.03μg/μl, Calmodulin, 1mM Tris,pH 7.3, 0.5mM CaCl2). […] A standard curve was then done to determine the amount of protein needed to generate a signal in the linear range of the ATP curve. 100ng of PNCK and 2ng of substrate was used per well in the 96-well plate format of this assay. […] Plates were read using the Clariostar Plus. Data was normalized to a DMSO and staurosporine controls.
(§1) Data analysis of ADP Kinase Glo results were carried out per the manufacturer’s instructions. Results were represented as a percent decrease in activity. Data was normalized to staurosporine (positive control) as 100% decrease and DMSO (negative control) as a 0% decrease. Data for NanoBRET was analyzed by dividing the acceptor by the donor emission and […] to obtain raw millibret units (mBU). Background was subtracted using control emission averages. Data was normalized to positive and negative controls of staurosporine and DMSO. Concentration-response curves were plotted in GraphPad Prism 8 and IC50s were extrapolated using non-linear fit with concentrations transformed to logarithmic scale. Baseline was held constant and represented the average mBU of staurosporine controls while the top was constrained to represent the average mBU of DMSO controls. Error bars on dose-response curves represent standard deviations.

[2] = target: T2, PNCK Nano-luciferase fusion (Homo sapiens, UniProt Q6P2M8); assay: NanoBRET Target Engagement Intracellular Kinase Assay, cell-based PNCK binding screen and dose response in HEK293 cells; conditions: for NanoBRET binding, result in words: cell-based screen / comparison with parent hit; for IC50: 8-point concentration-response; for cell permeability: stated on testing in NanoBRET assay
T2 construct: host or cells: HEK293
T2 sequence (Q6P2M8 whole entry, the tested form may be a part): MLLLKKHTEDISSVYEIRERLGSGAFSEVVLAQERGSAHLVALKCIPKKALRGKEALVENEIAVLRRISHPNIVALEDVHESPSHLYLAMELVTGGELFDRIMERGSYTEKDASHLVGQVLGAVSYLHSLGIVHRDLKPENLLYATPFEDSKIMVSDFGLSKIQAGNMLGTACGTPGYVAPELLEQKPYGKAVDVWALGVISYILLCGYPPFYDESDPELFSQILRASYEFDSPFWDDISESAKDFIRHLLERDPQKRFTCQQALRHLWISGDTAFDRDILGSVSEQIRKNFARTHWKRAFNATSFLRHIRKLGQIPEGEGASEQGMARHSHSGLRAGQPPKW
Experimental: The NanoBRET Target Engagement Intracellular Kinase Assay (Promega N2520) is a cell-based binding screen which reads loss of BRET signal as a result of target binding. A PNCK Nano-luciferase fusion vector plasmid was generated custom by Promega. The K-10 tracer was used for the assay, as determined by Promega. The plasmid was maxiprepped by Genewiz for use in all future assays. HEK293 cells were seeded in a T175 flask in DMEM with 10% FBS. The following day, cells were counted to 10,000, resuspended in assay media (Optimem with no phenol red, 1% FBS). Plasmid and transfection reagent (Fugene HD, Promega E2311) were added to the mixture and cells were seeded in a white 96-well plate. After 20–24 hours, media was changed, and the assay proceeded according to protocol. K10 tracer was added at the recommended concentration of 1uM while compounds were initially screened at both 10uM and 1uM. Cells incubated with compound at 37 degrees Celsius for a maximum of 2 hours before the plate was read using Clariostar Plus. Data was normalized to Staurosporine and DMSO controls. For compounds selected for further analysis, dose response curves were generated using the same testing protocol but at 8 different concentrations: 24uM, 12uM, 6uM, 3uM, 1.5uM, .75uM 0.375uM and 0.1875uM. UM195 was tested with concentrations from 12uM to 0.09375. Similarly, compounds from the analog by catalog analysis were tested at concentrations from 24uM to 0.1875uM.
as §1

[3] = compound 10uM, 25uM ATP, normalized to DMSO and staurosporine controls
[4] = compound 1uM, HEK293, K10 tracer 1uM, normalized to staurosporine and DMSO, read-out: Avg. Normalized % Inhibition, 1uM, Nanobret
[5] = compound 10uM, HEK293, K10 tracer 1uM, normalized to staurosporine and DMSO, read-out: Avg. Normalized % Inhibition, 10uM, Nanobret

SMILES | inhibition at 1 µM [2, 4] | inhibition at 10 µM [2, 5] | other results
COc1ccc(Cl)c(S(=O)(=O)Nc2ccc(OCC(=O)O)cc2)c1 [UM_038] | 0% | 18.9% | Avg. Normalized % Inhibition, 10uM, ADP Kinase Glo [1, 3]: 68.8%; inhibition at 10 µM [1, 3]: > 50%
O=C(O)Cc1cc(C2CCN(C(=O)c3ccc(C(F)(F)F)nc3O)CC2)[nH]n1 [UM_031] | 13.3% | 14.6% | inhibition at 10 µM [1, 3]: 7.65%
COc1cccc([C@@H](C)NC(=O)c2ccc(N3CC(=O)NC3=O)cc2)c1 [UM_032] | 0% | 17.4% | Avg. Normalized % Inhibition, 10uM, ADP Kinase Glo [1, 3]: 69.5%; inhibition at 10 µM [1, 3]: > 50%
O=C(O)c1n[nH]c2c1CN(C(=O)c1ccc(N3CCOCC3)cc1)CC2 [UM_030] | 0% | 11.3% | Avg. Normalized % Inhibition, 10uM, ADP Kinase Glo [1, 3]: Negligible
CC(C)c1ccc(NS(=O)(=O)c2cc(-c3ccc(=O)[nH]n3)ccc2Cl)cc1 [UM_029] | 0% | 52% | Avg. Normalized % Inhibition, 10uM, ADP Kinase Glo [1, 3]: 81.53%
O=C(O)c1ccc(F)c(S(=O)(=O)Nc2ccc(-c3cnco3)cc2)c1 [UM_021] | 0% | 0% | inhibition at 10 µM [1, 3]: 33.3%
O=c1nc(CSc2nnc(-c3ccccc3)c3ccccc23)[nH][nH]1 [UM_022] | 0% | 10.5% | Avg. Normalized % Inhibition, 10uM, ADP Kinase Glo [1, 3]: Negligible
O=c1[nH]c2ccccc2n1CCCSc1nnc2c(n1)[nH]c1ccccc12 [UM_037, 1-(3-5H-[1,2, 4]triazino [5,6-b]indol-3-ylsulfanylpropyl)-2,3-dihydro-1H-1,3-benzodiazol-2-one] |  |  | Avg. Normalized % Inhibition, 10uM, ADP Kinase Glo [1, 3]: minimal inhibitory activity; Dose-Response Curve Data (NanoBRET signal, replicates) ([2]; Concentration 1.20E-05 M, listed as UM37): 6.25 and 6.50 and 6.41; Dose-Response Curve Data (NanoBRET signal, replicates) ([2]; Concentration 1.50E-06 M, listed as UM37): 7.94 and 8.66 and 7.96; Dose-Response Curve Data (NanoBRET signal, replicates) ([2]; Concentration 1.88E-07 M, listed as UM37): 8.18 and 8.37 and 8.94; Dose-Response Curve Data (NanoBRET signal, replicates) ([2]; Concentration 2.40E-05 M, listed as UM37): 4.85 and 4.94 and 5.59; Dose-Response Curve Data (NanoBRET signal, replicates) ([2]; Concentration 3.00E-06 M, listed as UM37): 8.21 (2×) and 8.11; Dose-Response Curve Data (NanoBRET signal, replicates) ([2]; Concentration 3.75E-07 M, listed as UM37): 8.11 and 8.67 and 8.63; Dose-Response Curve Data (NanoBRET signal, replicates) ([2]; Concentration 6.00E-06 M, listed as UM37): 7.28 and 7.38 and 7.80; Dose-Response Curve Data (NanoBRET signal, replicates) ([2]; Concentration 7.50E-07 M, listed as UM37): 8.16 and 8.66 and 8.74
Cc1ccccc1CN1CCC(CNc2ncnc3sc(C(=O)O)c(C)c23)CC1 [UM_027] | 7.16% | 23% | inhibition at 10 µM [1, 3]: 63.9%
COc1ccccc1CNc1ncnc2sc(C(=O)O)c(C)c12 [UM_035] | 0% | 13.6% | Avg. Normalized % Inhibition, 10uM, ADP Kinase Glo [1, 3]: 75.66%
COc1ccc(CNC(=O)c2cc(C3CC3)[nH]n2)cc1C(=O)O [UM_019] | 0% | 0% | Avg. Normalized % Inhibition, 10uM, ADP Kinase Glo [1, 3]: Negligible
O=C1NC(=O)C(=Cc2ccc(Sc3nc4ccccc4[nH]3)o2)C(=O)N1 [UM_036] |  |  | inhibition at 10 µM [1]: 39.2%; inhibition at 1 µM ([2]; HEK293, read-out: Avg. Normalized % Inhibition, 1uM, Nanobret): 2.83%; inhibition at 10 µM ([2]; HEK293, read-out: Avg. Normalized % Inhibition, 10uM, Nanobret): 16.8%
O=c1[nH]c(CSc2ncccn2)nc2ccc(Cl)cc12 [UM_278] | 10.9% | 23.6% | NanoBRET binding, result in words [2]: did not demonstrate significantly improved binding
Cc1nnc(SCCCn2c(=O)[nH]c3ccccc32)n1N [UM_275] | 12% | 52.2% | 
O=c1[nH]c2ccccc2n2c(SCCCn3c(=O)[nH]c4ccccc43)nnc12 [UM_273] | 29% | 45.5% | 
O=C(COc1ccc2c3c(c(=O)oc2c1)CCCCC3)N1CCc2ccccc21 [UM_213, 3-[2-(2,3-dihydro-1H-indol-1-yl)-2-oxoethoxy]-6H,7H,8H,9H,10H,11H-cyclohepta [c]chromen-6-one] | 56.7% | 91.5% | IC50 ([2]; HEK293): 9.49 µM; Dose-Response Curve Data (NanoBRET signal, replicates) ([2]; Concentration 1.20E-05 M): 7.35 and 7.43 (2×); Dose-Response Curve Data (NanoBRET signal, replicates) ([2]; Concentration 1.50E-06 M): 8.59 and 8.87 and 8.44; Dose-Response Curve Data (NanoBRET signal, replicates) ([2]; Concentration 1.88E-07 M): 8.66 and 8.93 and 8.52; Dose-Response Curve Data (NanoBRET signal, replicates) ([2]; Concentration 2.40E-05 M): 6.31 and 6.47 and 6.34; Dose-Response Curve Data (NanoBRET signal, replicates) ([2]; Concentration 3.00E-06 M): 8.12 and 8.73 and 8.41; Dose-Response Curve Data (NanoBRET signal, replicates) ([2]; Concentration 3.75E-07 M): 8.92 and 8.51 and 8.71; Dose-Response Curve Data (NanoBRET signal, replicates) ([2]; Concentration 6.00E-06 M): 8.04 and 8.33 and 8.32; Dose-Response Curve Data (NanoBRET signal, replicates) ([2]; Concentration 7.50E-07 M): 8.68 and 8.62 and 8.88
O=C1CCCN1CC(O)COc1ccc2c3c(c(=O)oc2c1)CCCCC3 (stereo not shown) [UM_257] | 15.2% | 48.6% | 
N#Cc1cnc(Sc2nnc(-c3ccccc3)o2)cn1 [UM_253] | 4.54% | 55.6% | 
O=c1[nH]c(-c2ccc(-n3cccn3)nc2)nc2sc3ccccc3c12 [UM_208] | 5.94% | 87.8% | 
COc1cccc(-n2nnc3c(=O)n(CC(=O)N4CCCC4)cnc32)c1 [UM_230] | 21.2% | 55.1% | 
Cc1[nH]ccc1C(=O)NC1CCC(N2C(=O)CCC2=O)CC1 (stereo not shown) [UM_211] | 0% | 0% | 
COc1ccc2[nH]c(SCc3cc(=O)n4c(C)cccc4n3)nc2c1 [UM_196] | 3.82% | 30.5% | 
O=C1CCCc2c1cnc1nc(N3CCCCC3)nc(O)c21 [UM_232] | 1.49% | 10.9% | 
Nn1c(SCc2ccc(Br)cc2)nnc(CCC(=O)O)c1=O [UM_192] | 0% | 0% | cell permeability [2]: not cell permeable
Clc1nc(CN2CCCCC2)nc2sc3c(c12)CCC3 [UM_220] | 1.68% | 27.1% | 
CC1(C)CCc2c(sc(NC(=O)c3ccc(Cl)s3)c2C(N)=O)C1 [UM_260] | 4.8% | 31.2% | 
Cc1cc(NC(=O)[C@@H]2CCO[C@H]2c2nccn2C)nnc1C [UM_221] | 0% | 14.7% | 
O=C1CCCCCN1CCc1nc(-c2cccnn2)no1 [UM_242] |  |  | cell permeability [2]: not cell permeable
Cc1ccnc2nc(C(=O)OCC(=O)c3ccc(Cl)cc3Cl)nn12 [UM_198] | 2.17% | 22.7% | 
CC1CCc2c(sc(NC(=O)CSc3ncnc4[nH]cnc34)c2C(N)=O)C1 (stereo not shown) [UM_251] | 63.2% | 91.8% | IC50 ([2]; HEK293): 2.53 µM; Dose-Response Curve Data (NanoBRET signal, replicates) ([2]; Concentration 1.20E-05 M): 4.13 and 4.23 and 4.54 and 4.39; Dose-Response Curve Data (NanoBRET signal, replicates) ([2]; Concentration 1.50E-06 M): 6.59 and 7.07 and 6.74 and 7.03; Dose-Response Curve Data (NanoBRET signal, replicates) ([2]; Concentration 1.88E-07 M): 7.33 and 7.01 and 6.90 and 7.62; Dose-Response Curve Data (NanoBRET signal, replicates) ([2]; Concentration 2.40E-05 M): 4.23 and 3.92 and 4.54 and 4.39; Dose-Response Curve Data (NanoBRET signal, replicates) ([2]; Concentration 3.00E-06 M): 6.43 and 6.10 and 6.50 and 6.24; Dose-Response Curve Data (NanoBRET signal, replicates) ([2]; Concentration 3.75E-07 M): 7.22 and 7.21 and 7.00 and 7.10; Dose-Response Curve Data (NanoBRET signal, replicates) ([2]; Concentration 6.00E-06 M): 4.64 and 5.22 and 4.89 and 5.32; Dose-Response Curve Data (NanoBRET signal, replicates) ([2]; Concentration 7.50E-07 M): 7.22 and 6.99 and 7.34 and 6.94; NanoBRET binding, result in words [2]: improving from the IC50 of UM_228 by one order of magnitude
